Data: patent US11931424B2, “Combination MCL-1 inhibitors with anti-body drug conjugates” (Gilead Sciences, Inc., priority 2021, dated 2024)

Tests used:
Type in all cases: cell-based
[1] = system: HCC1187 (TNBC); assay: Compound A + SN-38 cell viability combination assay (Cell Titer Glo, Bliss synergy); conditions: HCC1187, 1st Replicate (n = 5), 72 hours; SN-38 0.0000 μM; Compound A μM = c0 of the row
From the text: (§1) Cells were passaged according to ATCC guidelines with 0.25% Trypsin/EDTA (1× GIBCO-25200).
(§2) Calculated values were compared to experimental results generated in the sixty-three-concentration checkerboard. Synergy or antagonism scores were generated depending on whether the observed growth inhibition was greater than or less than the calculated values, respectively.
(§3) Data for combination assays is presented in three formats.

[2] = system: panel of breast cancer cell lines; assay: Compound A with targeted agents and chemotherapies, 72-hour in vitro proliferation assays
[3] = system: HCC1806; assay: Compound A + paclitaxel cell viability combination assay (Cell Titer Glo, Bliss synergy); conditions: Homo sapiens, read-out: Percent Inhibition
Experimental: as §1
Viability assessments were performed using Cell Titer Glo™ (Promega #G9241) according to manufactures microwell plate protocol and read for luminescence on Synergy Neo2 plate reader.
For synergy matrix assays, TNBC cell lines were seeded 10,000 cells per well in clear-bottomed white 96-well plates (Corning #3909) in 100 μL of recommended cell culture medium. Plates were incubated at 37° C. and 100% RH for 20 hours prior to compound exposure.
Cells were then exposed to compound A with the same checkerboard matrix using D300 dispenser and incubated for 48 hours prior to measurement of viability by Cell Titer Glo.
as §2
These differences were summed up across the whole checker-board (sixty-three wells) to give cumulative synergy and antagonism scores with units of μM^2% to reflect the 2D surface of the dose responses.
as §3

[4] = system: panel of haematalogical cancer cell lines; assay: Compound A with BTK inhibitors, 72-hour in vitro proliferation assays; conditions: combination Compound A × listed BTK inhibitor, 72-hour proliferation

Question: With `COc1nn(C)cc1C(=O)N[S@@]1(=O)=NC(=O)c2ccc3c(c2)N(C[C@@H]2CC[C@H]2[C@@H](OC)/C=C/C[C@H](C)C1)C[C@@]1(CCCc2cc(Cl)ccc21)CO3` [Compound A, N-[(4S,7aR,9aR,10S,11E,14S)-6′-chloro-10-methoxy-14-methyl-16-oxido-18-oxo-3′,4′,7,7a,8,9,9a,10,13,14,15,18-dodecahydro-2′H-spiro[1,19-(ethanediylidene)-16λ^4-cyclobuta[i][1,4]oxazepino[3,4-f][1,2,7]thiadiazacyclohexadecine-4,1′-naphthalen]-16-yl]-3-methoxy-1-methyl-1H-pyrazole-4-carboxamide] as the compound, how does the “Percent Inhibition” value [1] read?
Answer: Its value is 99.2%.

Question: For `CC(=O)O[C@H]1C(=O)[C@@]2(C)[C@H]([C@H](OC(=O)c3ccccc3)[C@]3(O)C[C@H](OC(=O)[C@H](O)[C@@H](NC(=O)c4ccccc4)c4ccccc4)C(C)=C1C3(C)C)[C@]1(OC(C)=O)CO[C@@H]1C[C@@H]2O` [Paclitaxel, reference compound], which “Best CI” value ([2]; 72 h) is on record?
Answer: Its value is 0.32.

Question: What about the “Best CI” value ([2]; AU565 cell line, compound A × partner, 72-hour proliferation) of the same compound?
Answer: The value was 0.19.

Question: And the “Best CI” value ([2]; BT-20 cell line, compound A × partner, 72-hour proliferation)?
Answer: The value was 0.05.

Question: What about the “Best CI” value ([2]; BT-474 cell line, compound A × partner, 72-hour proliferation) of the same compound?
Answer: The value was 0.16.

Question: What about the “Best CI” value ([2]; BT-549 cell line, compound A × partner, 72-hour proliferation) of the same compound?
Answer: The value was 0.27.

Question: What about the “Best CI” value ([2]; CAL-51 cell line, compound A × partner, 72-hour proliferation) of the same compound?
Answer: The value was 0.50.

Question: What about the “Best CI” value ([2]; CAL-85-1 cell line, compound A × partner, 72-hour proliferation) of the same compound?
Answer: Its value is 0.23.

Question: What about the “Best CI” value ([2]; CAL-148 cell line, compound A × partner, 72-hour proliferation) of the same compound?
Answer: Its value is 0.25.

Question: What about the “Best CI” value ([2]; CAMA-1 cell line, compound A × partner, 72-hour proliferation) of the same compound?
Answer: The value was 0.05.

Question: And the “Best CI” value ([2]; DU-4475 cell line, compound A × partner, 72-hour proliferation)?
Answer: The value was 0.57.

Question: What about the “Best CI” value ([2]; EVSA-T cell line, compound A × partner, 72-hour proliferation) of the same compound?
Answer: Its value is 0.26.

Question: And the “Best CI” value ([2]; HCC38, compound A × partner, 72-hour proliferation)?
Answer: Its value is 0.21.

Question: What about the “Best CI” value ([2]; HCC70, compound A × partner, 72-hour proliferation) of the same compound?
Answer: Its value is 0.14.

Question: What about the “Best CI” value ([2]; HCC1143, compound A × partner, 72-hour proliferation) of the same compound?
Answer: The value was 0.35.

Question: And the “Best CI” value ([2]; HCC1569, compound A × partner, 72-hour proliferation)?
Answer: Its value is 0.41.

Question: What about the “Best CI” value ([2]; HCC1806, compound A × partner, 72-hour proliferation) of the same compound?
Answer: Its value is 0.10.

Question: And the “Best CI” value ([2]; HCC1937, compound A × partner, 72-hour proliferation)?
Answer: The value was 0.18.

Question: What about the “Best CI” value ([2]; HCC1954, compound A × partner, 72-hour proliferation) of the same compound?
Answer: Its value is 0.05.

Question: What about the “Best CI” value ([2]; HCC2218, compound A × partner, 72-hour proliferation) of the same compound?
Answer: Its value is 0.55.

Question: What about the “Best CI” value ([2]; HDQ-P1, compound A × partner, 72-hour proliferation) of the same compound?
Answer: The value was 0.82.

Question: What about the “Best CI” value ([2]; HMC-1-8, compound A × partner, 72-hour proliferation) of the same compound?
Answer: Its value is 0.11.

Question: What about the “Best CI” value ([2]; JIMT-1, compound A × partner, 72-hour proliferation) of the same compound?
Answer: Its value is 0.50.

Question: And the “Best CI” value ([2]; MCF7 cells, Compound A × partner agent, 72-hour proliferation)?
Answer: Its value is 0.32.

Question: What about the “Best CI” value ([2]; MDA-MB-175-VII cells, Compound A × partner agent, 72-hour proliferation) of the same compound?
Answer: The value was 0.13.

Question: And the “Best CI” value ([2]; MDA-MB-231 cells, Compound A × partner agent, 72-hour proliferation)?
Answer: Its value is 0.33.

Question: What about the “Best CI” value ([2]; MDA-MB-361 cells, Compound A × partner agent, 72-hour proliferation) of the same compound?
Answer: Its value is 0.50.

Question: What about the “Best CI” value ([2]; MDA-MB-436 cells, Compound A × partner agent, 72-hour proliferation) of the same compound?
Answer: The value was 0.68.

Question: And the “Best CI” value ([2]; MDA-MB-453 cells, Compound A × partner agent, 72-hour proliferation)?
Answer: The value was 0.07.

Question: And the “Best CI” value ([2]; MDA-MB-468 cells, Compound A × partner agent, 72-hour proliferation)?
Answer: The value was 0.27.

Question: What about the “Best CI” value ([2]; SK-BR-3 cells, combination of compound A with the named agent, 72-hour proliferation) of the same compound?
Answer: Its value is 0.70.

Question: And the “Best CI” value ([2]; SUM159PT cells, combination of compound A with the named agent, 72-hour proliferation)?
Answer: The value was 0.06.

Question: What about the “Best CI” value ([2]; T47D cells, combination of compound A with the named agent, 72-hour proliferation) of the same compound?
Answer: The value was 0.08.

Question: And the “Best CI” value ([2]; ZR-75-1 cells, combination of compound A with the named agent, 72-hour proliferation)?
Answer: The value was 0.07.

Question: And the “Best CI” value ([2]; ZR-75-30 cells, combination of compound A with the named agent, 72-hour proliferation)?
Answer: The value was 0.41.

Question: What about the inhibition at 0.0005 µM [3] of the same compound?
Answer: The inhibition at 0.0005 µM was 2.3%.

Question: What about the inhibition at 1 µM [3] of the same compound?
Answer: The inhibition at 1 µM was 64.8%.

Question: And the inhibition at 3 µM [3]?
Answer: The inhibition at 3 µM was 69.9%.

Question: Which “Best CI” value ([4]; HBL-1 cells) does the source give for `C=CC(=O)N1CCC([C@@H]2CCNc3c(C(N)=O)c(-c4ccc(Oc5ccccc5)cc4)nn32)CC1` [Zanubrutinib] here?
Answer: The value was 0.05.

Question: What about the “Best CI Level” value ([4]; HBL-1 cells) of the same compound?
Answer: Its value is 55.

Question: What about the “Bliss Volume” value ([4]; HBL-1 cells) of the same compound?
Answer: Its value is 5.13.

Question: And the “HSA volume” value ([4]; HBL-1 cells)?
Answer: The value was 10.34.

Question: And the “Loewe Volume” value ([4]; HBL-1 cells)?
Answer: The value was 9.75.

Question: And the “Synergy Score” value ([4]; HBL-1 cells)?
Answer: The value was 8.18.

Question: And the “Best CI” value ([4]; OCI-Ly10 cells)?
Answer: The value was 0.50.

Question: What about the “Best CI Level” value ([4]; OCI-Ly10 cells) of the same compound?
Answer: The value was 80.

Question: And the “Bliss Volume” value ([4]; OCI-Ly10 cells)?
Answer: The value was 1.36.

Question: What about the “HSA volume” value ([4]; OCI-Ly10 cells) of the same compound?
Answer: The value was 3.82.

Question: And the “Loewe Volume” value ([4]; OCI-Ly10 cells)?
Answer: The value was 3.55.

Question: What about the “Synergy Score” value ([4]; OCI-Ly10 cells) of the same compound?
Answer: Its value is 4.04.

Question: What about the “Best CI” value ([4]; SU-DHL-2 cells) of the same compound?
Answer: Its value is 0.86.

Question: And the “Best CI Level” value ([4]; SU-DHL-2 cells)?
Answer: The value was 40.

Question: What about the “Bliss Volume” value ([4]; SU-DHL-2 cells) of the same compound?
Answer: The value was 1.42.

Question: What about the “HSA volume” value ([4]; SU-DHL-2 cells) of the same compound?
Answer: The value was 0.63.

Question: What about the “Loewe Volume” value ([4]; SU-DHL-2 cells) of the same compound?
Answer: Its value is 1.23.

Question: And the “Synergy Score” value ([4]; SU-DHL-2 cells)?
Answer: The value was 0.72.

Question: And the “Best CI” value ([4]; SU-DHL-4 cells)?
Answer: The value was 1.06.

Question: And the “Best CI Level” value ([4]; SU-DHL-4 cells)?
Answer: The value was 20.

Question: What about the “Bliss Volume” value ([4]; SU-DHL-4 cells) of the same compound?
Answer: The value was 0.06.

Question: And the “HSA volume” value ([4]; SU-DHL-4 cells)?
Answer: The value was −4.15.

Question: What about the “Loewe Volume” value ([4]; SU-DHL-4 cells) of the same compound?
Answer: The value was −4.24.

Question: And the “Synergy Score” value ([4]; SU-DHL-4 cells)?
Answer: Its value is 0.76.

Question: And the “Best CI” value ([4]; SU-DHL-8 cells)?
Answer: Its value is 0.52.

Question: What about the “Best CI Level” value ([4]; SU-DHL-8 cells) of the same compound?
Answer: The value was 30.

Question: And the “Bliss Volume” value ([4]; SU-DHL-8 cells)?
Answer: The value was −5.98.

Question: And the “HSA volume” value ([4]; SU-DHL-8 cells)?
Answer: The value was −5.32.

Question: And the “Loewe Volume” value ([4]; SU-DHL-8 cells)?
Answer: The value was −5.81.

Question: And the “Synergy Score” value ([4]; SU-DHL-8 cells)?
Answer: Its value is 0.66.

Question: And the “Best CI” value ([4]; TMD8 cells)?
Answer: The value was 0.07.

Question: What about the “Best CI Level” value ([4]; TMD8 cells) of the same compound?
Answer: The value was 80.

Question: What about the “Bliss Volume” value ([4]; TMD8 cells) of the same compound?
Answer: Its value is 2.31.

Question: What about the “HSA volume” value ([4]; TMD8 cells) of the same compound?
Answer: The value was 4.24.

Question: And the “Loewe Volume” value ([4]; TMD8 cells)?
Answer: The value was 3.33.

Question: What about the “Synergy Score” value ([4]; TMD8 cells) of the same compound?
Answer: The value was 3.91.

Question: What about the “Best CI” value ([4]; U-2932 cells) of the same compound?
Answer: The value was 0.54.

Question: What about the “Best CI Level” value ([4]; U-2932 cells) of the same compound?
Answer: The value was 65.

Question: And the “Bliss Volume” value ([4]; U-2932 cells)?
Answer: The value was 5.21.

Question: What about the “HSA volume” value ([4]; U-2932 cells) of the same compound?
Answer: The value was 7.71.

Question: What about the “Loewe Volume” value ([4]; U-2932 cells) of the same compound?
Answer: The value was 7.67.

Question: And the “Synergy Score” value ([4]; U-2932 cells)?
Answer: Its value is 4.92.
